The target of the data set is T1, human recombinant CYP2A6 (Homo sapiens, UniProt P11509).
T1 construct: purchased
T1 sequence (P11509 1-494): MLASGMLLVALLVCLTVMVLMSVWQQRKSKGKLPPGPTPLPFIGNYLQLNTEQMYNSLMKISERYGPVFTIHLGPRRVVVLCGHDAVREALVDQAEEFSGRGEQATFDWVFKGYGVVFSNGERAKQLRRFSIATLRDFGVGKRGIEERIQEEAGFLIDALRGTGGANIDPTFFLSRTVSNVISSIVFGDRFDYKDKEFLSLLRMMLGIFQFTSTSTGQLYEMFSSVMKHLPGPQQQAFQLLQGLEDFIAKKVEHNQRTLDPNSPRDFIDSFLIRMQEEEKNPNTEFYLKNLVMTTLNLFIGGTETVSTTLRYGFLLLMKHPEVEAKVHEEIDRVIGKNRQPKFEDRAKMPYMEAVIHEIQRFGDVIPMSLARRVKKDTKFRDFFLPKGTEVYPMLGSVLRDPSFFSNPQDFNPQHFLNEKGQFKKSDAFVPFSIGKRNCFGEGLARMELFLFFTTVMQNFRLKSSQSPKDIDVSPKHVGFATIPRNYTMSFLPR
Description: Inhibition of nicotine metabolism in CYP2A6 Supersomes. The format is biochemical. The following applies: 0, 1 and 100 μM; nicotine 100 μM, 15 minutes at 37° C. On the procedure:
Samples containing 0, 5, 50, or 500 μM of GSE or Capsule were prepared as described in Example 4. Each sample was incubated with CYP2A6 Supersomes (human recombinant CYP2A6 in an artificial system comprising requisite factors for sample stability and function), with 20 pmol/ml nicotine at 100 μM, for 15 minutes at 37° C.
Sample containing 0, 1 and 100 μM of cytisine, a nicotine agonist, were prepared by extraction in ddH2O pH 4.1, for 2 hours at room temperature with continuous vortexing. The extraction was done at a concentration of 47 mg/ml. The samples were incubated with CYP2A6 Supersomes with 20 pmmol/ml of nicotine at 100 μM for 15 minutes at 37° C.

For the compound `O=c1cccc2n1C[C@@H]1CNC[C@H]2C1` [cytisine], the “inhibitory effect in CYP2A6 Supersomes (FIG. 7)” value is reported as “does not have an inhibitory effect”.

The record behind these values is patent US20090220626A1 (priority 2005, published 2009).
